Format in all cases: cell-based
One test concerns the target AR / CBP ternary complex (Homo sapiens, UniProt P10275+Q92793). The test can be described thus: Ternary complex formation assay (sandwich ELISA, AR capture, CBP antibody detection) in VCaP cell lysates. The note with it: treated 1.5 hours, rabbit CBP or p300 antibody detection, average, read-out: Average Ternary Complex. The gist of the method: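 Sandwich ELISA: plates were coated with anti-AR antibody (AR441) and given lysates of VCaP cells treated 1.5 h with bifunctional compound in charcoal-stripped serum. Co-captured CBP or p300 was probed with rabbit mAbs and HRP secondary. Chemifluorescent signal (ex 570/em 585) was read at 0, 5 and 15 min.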

The next test relates to VCaP cells. The test can be described thus: VCaP growth inhibition assay (CTG). The note with it: Homo sapiens, 216 h, 30 pM R1881, 9 days. In short, it runs like this: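 Growth was measured by CTG luminescence after a 9-day exposure of VCaP cells to compound (final 10 fM–100 nM, fivefold steps) in the presence of 30 pM final R1881, in phenol red-free DMEM/5% CSS. IC50 values were derived by nonlinear 4-parameter regression of RLU against concentration.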

A further test deals with HEK-293 cells. The test can be described thus: HEK-293 growth inhibition assay (CTG). The note with it: Homo sapiens, HEK293, 72 h, 3 days. As for the experimental part: HEK-293 cells (ATCC Cat #CRL-1573) are plated at 3×10^3 cells per well of a white plastic 96-well cluster plate (Thermo Scientific Nunc Cat #165306) in 200 uL DMEM (ATCC Cat #30-2002) media with 10% FBS (Gibco Cat #26140-079). Cluster plates are returned to the incubator (37*C/5% CO2) for 24 hours prior to treatment. Compounds (200X) were added to each well in a volume of 1 uL, with serial dilutions (1:5) from 2 mM to 200 pM (final concentrations in well are 10 uM to 1 pM). Cluster plates are returned to the incubator for 3 days.
After the 3-day treatment period, 100 uL media was removed from each well by aspiration and 100 uL room temperature CTG reagent (Promega Cat #G7573) is added back to each well. The cluster plates are placed on a shaker and incubated at room temperature for 20 minutes. Following this shaking/incubation, cluster plates are read on a luminometer (BMG ClarioStar). IC50 values are obtained by graphing the RLU data vs. compound concentration with nonlinear regression 4-parameter logistic curves (GraphPad Prism).

The IC50 is the concentration needed to halve the response being measured.

Chain of AR / CBP ternary complex (P10275 whole entry): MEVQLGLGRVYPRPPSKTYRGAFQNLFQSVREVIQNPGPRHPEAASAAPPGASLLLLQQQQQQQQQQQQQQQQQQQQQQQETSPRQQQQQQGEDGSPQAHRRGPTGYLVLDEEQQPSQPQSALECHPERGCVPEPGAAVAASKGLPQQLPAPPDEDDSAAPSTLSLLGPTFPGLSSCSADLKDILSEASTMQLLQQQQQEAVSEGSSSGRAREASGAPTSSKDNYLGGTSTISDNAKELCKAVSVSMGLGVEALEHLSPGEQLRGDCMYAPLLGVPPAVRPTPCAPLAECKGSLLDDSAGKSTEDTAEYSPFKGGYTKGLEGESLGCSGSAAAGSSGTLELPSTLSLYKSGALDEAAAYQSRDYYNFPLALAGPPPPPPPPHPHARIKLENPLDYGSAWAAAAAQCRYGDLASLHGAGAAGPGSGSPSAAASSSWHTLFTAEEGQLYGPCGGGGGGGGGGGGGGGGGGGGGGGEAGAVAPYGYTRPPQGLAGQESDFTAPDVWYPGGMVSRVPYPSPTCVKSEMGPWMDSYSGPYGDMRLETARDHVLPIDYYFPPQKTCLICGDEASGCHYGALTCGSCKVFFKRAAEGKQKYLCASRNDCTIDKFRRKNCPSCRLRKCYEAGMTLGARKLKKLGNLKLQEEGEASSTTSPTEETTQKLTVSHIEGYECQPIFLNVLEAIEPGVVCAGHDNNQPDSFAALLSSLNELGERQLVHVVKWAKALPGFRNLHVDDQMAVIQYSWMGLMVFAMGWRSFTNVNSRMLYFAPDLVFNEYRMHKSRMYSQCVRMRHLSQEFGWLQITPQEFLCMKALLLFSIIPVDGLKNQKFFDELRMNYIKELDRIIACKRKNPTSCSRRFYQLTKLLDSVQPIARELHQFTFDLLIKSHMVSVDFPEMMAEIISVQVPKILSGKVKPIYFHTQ
Chain of AR / CBP ternary complex (Q92793 2-2442): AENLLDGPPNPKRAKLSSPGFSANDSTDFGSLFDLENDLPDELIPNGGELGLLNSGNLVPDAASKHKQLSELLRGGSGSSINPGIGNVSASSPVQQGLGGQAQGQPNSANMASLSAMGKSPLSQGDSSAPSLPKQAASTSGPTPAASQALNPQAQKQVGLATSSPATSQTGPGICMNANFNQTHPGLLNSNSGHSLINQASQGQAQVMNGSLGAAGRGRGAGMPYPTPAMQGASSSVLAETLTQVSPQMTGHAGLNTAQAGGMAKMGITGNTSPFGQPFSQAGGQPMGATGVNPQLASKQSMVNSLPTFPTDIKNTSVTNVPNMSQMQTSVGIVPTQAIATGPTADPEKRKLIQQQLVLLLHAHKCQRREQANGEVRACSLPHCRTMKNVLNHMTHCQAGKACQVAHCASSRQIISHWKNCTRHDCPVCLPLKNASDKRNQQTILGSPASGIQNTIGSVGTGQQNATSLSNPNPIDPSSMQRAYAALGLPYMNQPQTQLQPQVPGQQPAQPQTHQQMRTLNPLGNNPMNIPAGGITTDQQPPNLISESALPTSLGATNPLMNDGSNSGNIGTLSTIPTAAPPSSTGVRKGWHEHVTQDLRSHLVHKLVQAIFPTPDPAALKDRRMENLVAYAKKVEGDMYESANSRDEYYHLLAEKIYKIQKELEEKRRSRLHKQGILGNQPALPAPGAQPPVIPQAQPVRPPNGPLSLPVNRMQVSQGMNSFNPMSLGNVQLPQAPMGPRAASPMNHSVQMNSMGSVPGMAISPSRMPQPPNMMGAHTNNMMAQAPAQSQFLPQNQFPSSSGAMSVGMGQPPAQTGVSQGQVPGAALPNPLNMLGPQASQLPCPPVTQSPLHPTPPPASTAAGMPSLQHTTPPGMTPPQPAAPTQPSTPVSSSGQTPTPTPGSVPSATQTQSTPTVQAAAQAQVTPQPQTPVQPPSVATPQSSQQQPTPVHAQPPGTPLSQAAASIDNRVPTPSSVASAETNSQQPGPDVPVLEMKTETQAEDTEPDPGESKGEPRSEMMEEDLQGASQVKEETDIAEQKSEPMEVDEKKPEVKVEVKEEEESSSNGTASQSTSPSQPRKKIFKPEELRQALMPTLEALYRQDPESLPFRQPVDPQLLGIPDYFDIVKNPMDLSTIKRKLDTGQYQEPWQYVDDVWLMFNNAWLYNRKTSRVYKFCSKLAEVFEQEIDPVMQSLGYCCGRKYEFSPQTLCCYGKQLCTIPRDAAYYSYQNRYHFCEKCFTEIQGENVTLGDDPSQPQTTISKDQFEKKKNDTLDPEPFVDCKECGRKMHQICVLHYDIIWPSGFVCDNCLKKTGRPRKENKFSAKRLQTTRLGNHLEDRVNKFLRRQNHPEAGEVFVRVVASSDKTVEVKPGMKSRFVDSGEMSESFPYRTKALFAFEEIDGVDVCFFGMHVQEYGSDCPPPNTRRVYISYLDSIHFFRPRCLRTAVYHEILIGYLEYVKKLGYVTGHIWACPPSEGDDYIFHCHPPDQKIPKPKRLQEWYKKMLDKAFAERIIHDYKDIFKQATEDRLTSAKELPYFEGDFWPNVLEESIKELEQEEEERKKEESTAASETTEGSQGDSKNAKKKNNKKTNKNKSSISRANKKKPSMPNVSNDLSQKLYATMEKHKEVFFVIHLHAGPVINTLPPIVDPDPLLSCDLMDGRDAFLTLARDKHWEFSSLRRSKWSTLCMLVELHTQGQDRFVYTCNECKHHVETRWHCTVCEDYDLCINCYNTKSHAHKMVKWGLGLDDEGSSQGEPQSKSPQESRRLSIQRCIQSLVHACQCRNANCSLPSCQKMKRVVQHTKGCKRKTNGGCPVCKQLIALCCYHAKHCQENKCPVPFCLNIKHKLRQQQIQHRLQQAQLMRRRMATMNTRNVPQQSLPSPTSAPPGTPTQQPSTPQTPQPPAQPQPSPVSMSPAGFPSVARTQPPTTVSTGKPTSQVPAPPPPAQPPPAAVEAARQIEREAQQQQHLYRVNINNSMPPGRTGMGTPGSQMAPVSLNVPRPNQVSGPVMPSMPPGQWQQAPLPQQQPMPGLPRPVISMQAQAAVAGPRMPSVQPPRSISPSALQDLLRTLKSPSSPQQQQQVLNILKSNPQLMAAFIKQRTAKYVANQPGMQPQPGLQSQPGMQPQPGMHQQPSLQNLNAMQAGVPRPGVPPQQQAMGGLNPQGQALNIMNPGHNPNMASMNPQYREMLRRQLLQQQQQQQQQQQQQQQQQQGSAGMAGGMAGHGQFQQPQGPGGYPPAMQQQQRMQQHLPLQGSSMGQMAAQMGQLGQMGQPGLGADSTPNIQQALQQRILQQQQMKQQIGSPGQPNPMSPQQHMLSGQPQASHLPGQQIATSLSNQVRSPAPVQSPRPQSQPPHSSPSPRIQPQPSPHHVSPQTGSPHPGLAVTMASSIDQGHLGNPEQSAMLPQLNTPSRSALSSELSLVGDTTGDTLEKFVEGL

In the case of `CC(=O)N1CCc2c(c(N3CCCc4cc(-c5cnn(C)c5)c(C(F)F)cc43)nn2C2CCN(C(=O)COC3CCN(c4ccc(C(=O)N[C@H]5CC[C@H](Oc6ccc(C#N)c(Cl)c6)CC5)nn4)CC3)CC2)C1` [Compound 1, 6-[4-[2-[4-[5-acetyl-3-[7-(difluoromethyl)-6-(1-methylpyrazol-4-yl)-3,4-dihydro-2H-quinolin-1-yl]-6,7-dihydro-4H-pyrazolo[4,3-c]pyridin-1-yl]-1-piperidyl]-2-oxo-ethoxy]-1-piperidyl]-N-[4-(3-chloro-4-cyano-phenoxy)cyclohexyl]pyridazine-3-carboxamide], the EC50 at AR / CBP ternary complex was below 1 nM. Further, the IC50 is at most 0.1 nM with VCaP cells and above 10000 nM with HEK-293 cells.

Take `CC(=O)N1CCc2c(c(N3CCCc4cc(-c5cnn(C)c5)c(C)cc43)nn2C2CCN(CC3CCN(c4ccc(C(=O)N[C@H]5CC[C@H](Oc6ccc(C#N)c(Cl)c6)CC5)nn4)CC3(C)C)CC2)C1` (stereo partly drawn) [Compound 282, 6-[4-[[4-[5-acetyl-3-[7-methyl-6-(1-methylpyrazol-4-yl)-3,4-dihydro-2H-quinolin-1-yl]-6,7-dihydro-4H-pyrazolo[4,3-c]pyridin-1-yl]-1-piperidyl]methyl]-3,3-dimethyl-1-piperidyl]-N-[4-(3-chloro-4-cyano-phenoxy)cyclohexyl]pyridazine-3-carboxamide]: the EC50 on AR / CBP ternary complex is below 1 nM. For the same molecule, the IC50 with VCaP cells was in the range of 0.1 to 1 nM.

For `CC(=O)N1CCc2c(c(N3CCCc4cc(C#N)c(C(F)F)cc43)nn2C2CCN(CC3CCN(c4ccc(C(=O)N[C@H]5CC[C@H](Oc6ccc(C#N)c(Cl)c6)CC5)nn4)CC3(C)C)CC2)C1` (stereo partly drawn) [Compound 283, 6-[4-[[4-[5-acetyl-3-[6-cyano-7-(difluoromethyl)-3,4-dihydro-2H-quinolin-1-yl]-6,7-dihydro-4H-pyrazolo[4,3-c]pyridin-1-yl]-1-piperidyl]methyl]-3,3-dimethyl-1-piperidyl]-N-[4-(3-chloro-4-cyano-phenoxy)cyclohexyl]pyridazine-3-carboxamide], the EC50 on AR / CBP ternary complex is below 1 nM. Moreover, the IC50 with VCaP cells is at most 0.1 nM.

In the case of `CC(=O)N1CCc2c(c(N3CCCc4cc(C#N)c(C(F)F)cc43)nn2C2CCN(C[C@H]3[C@H](C)CN(c4ccc(C(=O)N[C@H]5CC[C@H](Oc6ccc(C#N)c(Cl)c6)CC5)nn4)C[C@@H]3C)CC2)C1` [Compound 286, 6-[4-[[4-[5-acetyl-3-[6-cyano-7-(difluoromethyl)-3,4-dihydro-2H-quinolin-1-yl]-6,7-dihydro-4H-pyrazolo[4,3-c]pyridin-1-yl]-1-piperidyl]methyl]-3,5-dimethyl-1-piperidyl]-N-[4-(3-chloro-4-cyano-phenoxy)cyclohexyl]pyridazine-3-carboxamide], the EC50 on AR / CBP ternary complex is below 1 nM. In the test on VCaP cells, this molecule had a concentration for half-maximal inhibition (IC50) of at most 0.1 nM.

`CC(=O)N1CCc2c(c(N3CCCc4cc(-c5cnn(C)c5)c(C(F)F)cc43)nn2C2CCN(C[C@H]3[C@H](C)CN(c4ccc(C(=O)N[C@H]5CC[C@H](Oc6ccc(C#N)c(Cl)c6C)CC5)nn4)C[C@@H]3C)CC2)C1` [Compound 287, 6-[4-[[4-[5-acetyl-3-[7-(difluoromethyl)-6-(1-methylpyrazol-4-yl)-3,4-dihydro-2H-quinolin-1-yl]-6,7-dihydro-4H-pyrazolo[4,3-c]pyridin-1-yl]-1-piperidyl]methyl]-3,5-dimethyl-1-piperidyl]-N-[4-(3-chloro-4-cyano-2-methyl-phenoxy)cyclohexyl]pyridazine-3-carboxamide]: the EC50 at AR / CBP ternary complex was below 1 nM. In the test on VCaP cells, this molecule displayed an IC50 of at most 0.1 nM.

Regarding `CC(=O)N1CCc2c(c(N3CCCc4cc(-c5cnn(C)c5)c(C(F)F)cc43)nn2C2CCN(C[C@H]3[C@H](C)CN(c4ccc(C(=O)N[C@H]5CC[C@H](Oc6ccc(C#N)c(C)c6C)CC5)nn4)C[C@@H]3C)CC2)C1` [Compound 288], the EC50 on AR / CBP ternary complex is below 1 nM. The molecule also gave a half-inhibitory concentration (IC50) in the test with VCaP cells of at most 0.1 nM.

Turning to `CC(=O)N1CCc2c(c(N3CCCc4cc(-c5cnn(C)c5)c(C(F)F)cc43)nn2C2CCN(C[C@H]3[C@H](C)CN(c4ccc(C(=O)N[C@H]5CC[C@H](Oc6ccc(C#N)c(C)c6)CC5)nn4)C[C@@H]3C)CC2)C1` [Compound 289, 6-[4-[[4-[5-acetyl-3-[7-(difluoromethyl)-6-(1-methylpyrazol-4-yl)-3,4-dihydro-2H-quinolin-1-yl]-6,7-dihydro-4H-pyrazolo[4,3-c]pyridin-1-yl]-1-piperidyl]methyl]-3,5-dimethyl-1-piperidyl]-N-[4-(4-cyano-3-methyl-phenoxy)cyclohexyl]pyridazine-3-carboxamide], the EC50 at AR / CBP ternary complex was below 1 nM. The IC50 with VCaP cells was at most 0.1 nM.

On to `CC(=O)N1CCc2c(c(N3CCCc4cc(-c5cnn(C)c5)c(C)cc43)nn2C2CCN(CC3CCN(c4ccc(C(=O)N[C@H]5CC[C@H](Oc6ccc(C#N)c(Cl)c6C)CC5)nn4)CC3(C)C)CC2)C1` (stereo partly drawn) [Compound 291, 6-[4-[[4-[5-acetyl-3-[7-methyl-6-(1-methylpyrazol-4-yl)-3,4-dihydro-2H-quinolin-1-yl]-6,7-dihydro-4H-pyrazolo[4,3-c]pyridin-1-yl]-1-piperidyl]methyl]-3,3-dimethyl-1-piperidyl]-N-[4-(3-chloro-4-cyano-2-methyl-phenoxy)cyclohexyl]pyridazine-3-carboxamide], for which the EC50 on AR / CBP ternary complex was below 1 nM. Further, the IC50 with VCaP cells is at most 0.1 nM.

As to `CC(=O)N1CCc2c(c(N3CCCc4cc(-c5cnn(C)c5)c(C)cc43)nn2C2CCN(CC3CCN(c4ccc(C(=O)N[C@H]5CC[C@H](Oc6ccc(C#N)c(C)c6C)CC5)nn4)CC3(C)C)CC2)C1` (stereo partly drawn) [Compound 292, 6-[4-[[4-[5-acetyl-3-[7-methyl-6-(1-methylpyrazol-4-yl)-3,4-dihydro-2H-quinolin-1-yl]-6,7-dihydro-4H-pyrazolo[4,3-c]pyridin-1-yl]-1-piperidyl]methyl]-3,3-dimethyl-1-piperidyl]-N-[4-(4-cyano-2,3-dimethyl-phenoxy)cyclohexyl]pyridazine-3-carboxamide], the EC50 on AR / CBP ternary complex was below 1 nM. In the test on VCaP cells, this molecule displayed a 50% inhibitory concentration (IC50) of at most 0.1 nM.

For `CC(=O)N1CCc2c(c(N3CCCc4cc(-c5cnn(C)c5)c(C)cc43)nn2C2CCN(CC3CCN(c4ccc(C(=O)N[C@H]5CC[C@H](Oc6ccc(C#N)c(C)c6)CC5)nn4)CC3(C)C)CC2)C1` (stereo partly drawn) [Compound 293, 6-[4-[[4-[5-acetyl-3-[7-methyl-6-(1-methylpyrazol-4-yl)-3,4-dihydro-2H-quinolin-1-yl]-6,7-dihydro-4H-pyrazolo[4,3-c]pyridin-1-yl]-1-piperidyl]methyl]-3,3-dimethyl-1-piperidyl]-N-[4-(4-cyano-3-methyl-phenoxy)cyclohexyl]pyridazine-3-carboxamide], on AR / CBP ternary complex, the EC50 is below 1 nM. Also, the half-inhibitory concentration (IC50) with VCaP cells is at most 0.1 nM.

In the case of `CC(=O)N1CCc2c(c(N3CCCc4cc(-c5cnn(C)c5)c(C)cc43)nn2C2CCN(C3CCC4(CC3)CN(c3ccc(C(=O)N[C@H]5CC[C@H](Oc6ccc(C#N)c(C)c6)CC5)nn3)C4)CC2)C1` [Compound 298, 6-[7-[4-[5-acetyl-3-[7-methyl-6-(1-methylpyrazol-4-yl)-3,4-dihydro-2H-quinolin-1-yl]-6,7-dihydro-4H-pyrazolo[4,3-c]pyridin-1-yl]-1-piperidyl]-2-azaspiro[3.5]nonan-2-yl]-N-[4-(4-cyano-3-methyl-phenoxy)cyclohexyl] pyridazine-3-carboxamide], at AR / CBP ternary complex, the EC50 is below 1 nM. Moreover, the IC50 in the test on VCaP cells lay in the range of 0.1 to 1 nM.

With `CC(=O)N1CCc2c(c(N3CCCc4cc(-c5cnn(C)c5)c(C)cc43)nn2C2CCN(C3CCC4(CC3)CN(c3ccc(C(=O)N[C@H]5CC[C@H](Oc6ccc(C#N)c(C)c6C)CC5)nn3)C4)CC2)C1` [Compound 299], the EC50 on AR / CBP ternary complex is below 1 nM. Also, in the test with VCaP cells, the IC50 is at most 0.1 nM.

For the molecule `CC(=O)N1CCc2c(c(N3CCCc4cc(-c5cnn(C)c5)c(C)cc43)nn2C2CCN(C3CCC4(CC3)CN(c3ccc(C(=O)N[C@H]5CC[C@H](Oc6ccc(C#N)c(Cl)c6C)CC5)nn3)C4)CC2)C1` [Compound 300, 6-[7-[4-[5-acetyl-3-[7-methyl-6-(1-methylpyrazol-4-yl)-3,4-dihydro-2H-quinolin-1-yl]-6,7-dihydro-4H-pyrazolo[4,3-c]pyridin-1-yl]-1-piperidyl]-2-azaspiro[3.5]nonan-2-yl]-N-[4-(3-chloro-4-cyano-2-methyl-phenoxy)cyclohexyl]pyridazine-3-carboxamide], the EC50 on AR / CBP ternary complex was below 1 nM. In addition, the IC50 in the test on VCaP cells was at most 0.1 nM.

Values taken from patent publication US20250136578A1 (Kolm Therapeutics Inc., priority 2023, published 2025).
